Laboratory results: the NIST ThermoML archive (doi:10.1007/s10765-019-2537-x)
Where “and” joins values, the source holds several entries; their conditions need not be identical. Identical values can stand only once. Numbers after ± are expanded uncertainties.

Details: Liquid, transient hot wire

CCCCCCCCCCCCCCC [pentadecane]
Details	thermal conductivity
436.95 K, 5250 kPa	0.111 ± 0.04 W/m/K
436.98 K, 10580 kPa	0.1145 ± 0.04 W/m/K
437.06 K, 1280 kPa	0.1105 ± 0.04 W/m/K
437.06 K, 15070 kPa	0.1143 ± 0.04 W/m/K
437.08 K, 15070 kPa	0.1135 ± 0.04 W/m/K
437.1 K, 5250 kPa	0.1106 ± 0.04 W/m/K
437.1 K, 15070 kPa	0.1133 ± 0.04 W/m/K
437.11 K, 1280 kPa	0.1079 ± 0.04 W/m/K
437.12 K, 10470 kPa	0.1112 ± 0.04 W/m/K
437.14 K, 5250 kPa	0.1103 ± 0.04 W/m/K
437.25 K, 1280 kPa	0.1089 ± 0.04 W/m/K
456.48 K, 20550 kPa	0.1176 ± 0.04 W/m/K
456.52 K, 20460 kPa	0.1176 ± 0.04 W/m/K
456.66 K, 20460 kPa	0.113 ± 0.04 W/m/K
456.86 K, 15300 kPa	0.1132 ± 0.04 W/m/K
456.9 K, 15300 kPa	0.1124 ± 0.04 W/m/K
456.94 K, 15300 kPa	0.1116 ± 0.04 W/m/K
457.02 K, 1540 kPa	0.1032 ± 0.04 W/m/K
457.03 K, 1550 kPa	0.1063 ± 0.04 W/m/K
457.03 K, 10370 kPa	0.1096 ± 0.04 W/m/K
457.04 K, 1560 kPa	0.1059 ± 0.04 W/m/K
457.18 K, 5400 kPa	0.1082 ± 0.04 W/m/K
457.32 K, 5440 kPa	0.1063 ± 0.04 W/m/K
457.33 K, 10250 kPa	0.1104 ± 0.04 W/m/K
457.37 K, 10270 kPa	0.1084 ± 0.04 W/m/K
457.4 K, 5440 kPa	0.1059 ± 0.04 W/m/K
476.68 K, 20310 kPa	0.114 ± 0.04 W/m/K
476.72 K, 15160 kPa	0.1061 ± 0.04 W/m/K
476.9 K, 20850 kPa	0.1106 ± 0.04 W/m/K
476.95 K, 15160 kPa	0.1094 ± 0.04 W/m/K
476.97 K, 10330 kPa	0.1092 ± 0.04 W/m/K
477 K, 15160 kPa	0.1082 ± 0.04 W/m/K
477.06 K, 20970 kPa	0.1128 ± 0.04 W/m/K
477.24 K, 5120 kPa	0.1033 ± 0.04 W/m/K
477.29 K, 1080 kPa	0.0998 ± 0.04 W/m/K
477.29 K, 10330 kPa	0.1023 ± 0.04 W/m/K
477.3 K, 5120 kPa	0.1024 ± 0.04 W/m/K
477.3 K, 10330 kPa	0.1044 ± 0.04 W/m/K
477.32 K, 5120 kPa	0.1031 ± 0.04 W/m/K
477.33 K, 1080 kPa	0.0988 ± 0.04 W/m/K
477.61 K, 1080 kPa	0.1038 ± 0.04 W/m/K
496.62 K, 20420 kPa	0.111 ± 0.04 W/m/K
496.9 K, 20420 kPa	0.1069 ± 0.04 W/m/K
496.94 K, 10500 kPa	0.102 ± 0.04 W/m/K
496.95 K, 5430 kPa	0.0983 ± 0.04 W/m/K
496.95 K, 20420 kPa	0.1039 ± 0.04 W/m/K
496.96 K, 15010 kPa	0.1033 ± 0.04 W/m/K
496.97 K, 15010 kPa	0.1021 ± 0.04 W/m/K and 0.105 ± 0.04 W/m/K
497 K, 10530 kPa	0.1008 ± 0.04 W/m/K
497.04 K, 10470 kPa	0.1024 ± 0.04 W/m/K
497.1 K, 5410 kPa	0.0981 ± 0.04 W/m/K
497.15 K, 5430 kPa	0.0965 ± 0.04 W/m/K
516.81 K, 15180 kPa	0.104 ± 0.04 W/m/K
516.84 K, 20110 kPa	0.0998 ± 0.04 W/m/K
516.89 K, 20110 kPa	0.1031 ± 0.04 W/m/K
517 K, 15180 kPa	0.0984 ± 0.04 W/m/K
517 K, 20100 kPa	0.1021 ± 0.04 W/m/K
517.03 K, 15180 kPa	0.099 ± 0.04 W/m/K
517.12 K, 5490 kPa	0.0948 ± 0.04 W/m/K
517.19 K, 5490 kPa	0.094 ± 0.04 W/m/K
517.2 K, 5490 kPa	0.0941 ± 0.04 W/m/K
536.59 K, 20650 kPa	0.1039 ± 0.04 W/m/K and 0.1025 ± 0.04 W/m/K
536.85 K, 20650 kPa	0.0995 ± 0.04 W/m/K
536.99 K, 15650 kPa	0.1001 ± 0.04 W/m/K
537.13 K, 15650 kPa	0.0975 ± 0.04 W/m/K
537.14 K, 10120 kPa	0.0972 ± 0.04 W/m/K
537.39 K, 5310 kPa	0.0872 ± 0.04 W/m/K
556.55 K, 5420 kPa	0.0851 ± 0.04 W/m/K
556.82 K, 15300 kPa	0.1002 ± 0.04 W/m/K
556.9 K, 20180 kPa	0.0999 ± 0.04 W/m/K
556.93 K, 10380 kPa	0.0967 ± 0.04 W/m/K
557 K, 20180 kPa	0.0986 ± 0.04 W/m/K
557.05 K, 10380 kPa	0.0943 ± 0.04 W/m/K
557.06 K, 20180 kPa	0.098 ± 0.04 W/m/K
557.12 K, 15300 kPa	0.0941 ± 0.04 W/m/K
557.14 K, 15300 kPa	0.0924 ± 0.04 W/m/K
576.55 K, 20450 kPa	0.0998 ± 0.04 W/m/K
576.95 K, 20450 kPa	0.0961 ± 0.04 W/m/K
577.01 K, 10240 kPa	0.0944 ± 0.04 W/m/K
577.06 K, 20450 kPa	0.0928 ± 0.04 W/m/K
577.08 K, 15190 kPa	0.0923 ± 0.04 W/m/K
577.1 K, 5140 kPa	0.0897 ± 0.04 W/m/K
577.12 K, 10300 kPa	0.0889 ± 0.04 W/m/K
577.12 K, 15190 kPa	0.0924 ± 0.04 W/m/K
577.15 K, 15190 kPa	0.09 ± 0.04 W/m/K
577.16 K, 10320 kPa	0.0907 ± 0.04 W/m/K
577.17 K, 5140 kPa	0.0888 ± 0.04 W/m/K
577.25 K, 5140 kPa	0.0876 ± 0.04 W/m/K
